Results taken from US20190133968A1, “Applications of benzophenones in preparation of drug” (SHANXI MEDICAL UNIVERSITY, priority 2016, published 2019).

System: DN rats
Assay: type II diabetic nephropathy (DN) rat model (high-sugar high-fat diet + streptozocin)
Format: in vivo, SD (Sprague Dawley) rats
Settings: for BUN / CREA / Glycated hemoglobin / Urinary protein / mALB (microalbumin in urine) / ICAM-1 / IL-1β / IL-6 / MDA / NF-κB / SOD / T-AOC / TGF-β1 / TNF-α / Glucose (GLU) / HDL-C / LDL-C / TC / TG / UA / Kidney coefficient / VCAM-1: gavage, 6 weeks; for Urinary protein / mALB (microalbumin in urine): 6-hour urine; for ICAM-1 / IL-1β / IL-6 / MDA / NF-κB / SOD / T-AOC / TGF-β1 / TNF-α / VCAM-1: renal tissues; for Glucose (GLU) / HDL-C / LDL-C / TC / TG / UA: serum; for Kidney coefficient: weights of two kidneys/body weight
Procedure: The solid dispersions are prepared through a solvent method, comprising steps of: respectively precisely weighing LM49, PVPK30 and tween80 with a weight ratio of 1:5:1, and A8, PVPK30 and tween80 with a weight ratio of 1:4:1; dissolving with appropriate absolute ethyl alcohol, continuously stirring, and uniformly mixing; placing on the water bath at 60° C., evaporating and removing the absolute ethyl alcohol, and obtaining a viscous material; placing in the freezer at −20° C., and freezing for 2 hours; taking out from the freezer, then placing in the vacuum drying oven, and drying for 24 hours; after becoming embrittlement, smashing and sieving with a sieve of 80 meshes, and then placing in the dryer for storage.
The healthy adult male SD rats (having a weight of 180-220 g) are fed with the high-sugar and high-fat diet for 4 weeks; the rats are fasting overnight; and streptozocin (STZ) of 40 mg/kg is intraperitoneally injected into the rats. The rats of normal control group are injected with the sodium citrate buffer of same volume; 72 hours later, the rats are fasting for 12 hours. […] During the administration period, the successfully established model rats are still fed with the high-sugar and high-fat diet, while the rats of the normal control group are fed with the normal diet.
After administration for 6 weeks, 6-hour urine of the rats is collected with the metabolism cage.
The rats are fasting overnight and anesthetized intraperitoneally, then the abdominal aorta blood thereof is drawn for measuring the related indexes. The two kidneys of each rat are washed with the normal saline; weights of the kidneys are recorded; and the kidney coefficient (weights of two kidneys/body weight) is calculated. The renal tissues (comprising the glomerulus and renal tubules) at the same part of the left kidney are cut lengthwise and immersed in the 10% neutral formalin for pathomorphology analysis, and the other parts of the left kidney are used for biochemical index measurement; the right kidney is used for mechanism research and stored in the freezer at −80° C.
After successfully establishing the model rats, expect the normal control group (ten rats), the remaining rats are randomly divided into eight groups, wherein each group has twelve rats. The eight groups are respectively the model group, the LM49 solid dispersion low-dose group (with the drug concentration of 3 mg/kg), the LM49 solid dispersion medium-dose group (with the drug concentration of 9 mg/kg), the LM49 solid dispersion high-dose group (with the drug concentration of 27 mg/kg), the A8 solid dispersion low-dose group (with the drug concentration of 3 mg/kg), the A8 solid dispersion medium-dose group (with the drug concentration of 9 mg/kg), the A8 solid dispersion high-dose group (with the drug concentration of 27 mg/kg), and the captopril control group (with the drug concentration of 15 mg/kg).
Administration Way: By Gavage.
The rats of the normal control group and the model group are administrated with the normal saline of 1.0 ml/100 g; the rats of the positive control group, the LM49 solid dispersion high-dose, medium-dose and low-dose groups and the A8 solid dispersion high-dose, medium-dose and low-dose groups are respectively administrated with the drugs of different concentrations, and the administration volume is 1.0 ml/100 g.
The solid dispersions are dissolved by the normal saline; and the rats of the positive control group are administrated with the 0.5% CMC-Na (sodium carboxymethyl cellulose) suspension.
The rats are administrated seven days a week, for totally six weeks.
The IBM SPSS Statistics 20 software is used for data processing, and the data is represented in x±s. The one-way analysis of variance (ANOVA) is adopted for comparison among the groups. According to the homogeneity test results of variance, if the variance is equal, the LSD (least significant difference) test is adopted; if the variance is unequal, the Dunnett's T3 test is adopted. […]

O=C(c1cc(OC(=O)N2CCOCC2)c(OC(=O)N2CCOCC2)cc1Cl)c1cc(Cl)ccc1OC(=O)N1CCOCC1 [A8, 4,5,2′-tris(4-morpholinemethanoyl)-2,5′-dichlorobenzophenone]
BUN (DN rats, high-dose 27 mg/kg): 10.05 ± 1.61 mmol/L | CREA (DN rats, high-dose 27 mg/kg): 52.06 ± 1.66 µmol/L | Glycated hemoglobin (DN rats, high-dose 27 mg/kg): 6.44 ± 0.53^□□● % | Urinary protein (DN rats, high-dose 27 mg/kg): 1.42 ± 0.71^□□●●▴ mg/6 h | mALB (microalbumin in urine) (DN rats, high-dose 27 mg/kg): 39.00 ± 7.58^□□●●▴▴ μg/6 h | ICAM-1 (DN rats, high-dose 27 mg/kg): 322.5 ± 85.70 pg/mgprog | IL-1β (DN rats, high-dose 27 mg/kg): 133.45 ± 24.68 pg/mgprog | IL-6 (DN rats, high-dose 27 mg/kg): 71.29 ± 14.14^□□● pg/mgprog | MDA (DN rats, high-dose 27 mg/kg): 1.42 ± 0.25 nmol/mgprog | NF-κB (DN rats, high-dose 27 mg/kg): 298.32 ± 58.92^□□▴▴◯◯ pg/mgprog | SOD (DN rats, high-dose 27 mg/kg): 4.37 ± 1.25 U/mgprog | T-AOC (DN rats, high-dose 27 mg/kg): 1.32 ± 0.17 U/mgprog | TGF-β1 (DN rats, high-dose 27 mg/kg): 21.36 ± 4.64^□□●●▴▴ pg/mgprot | TNF-α (DN rats, high-dose 27 mg/kg): 304.51 ± 73.47^□ pg/mgprog | Glucose (GLU) (DN rats, high-dose 27 mg/kg): 9.75 ± 2.11^□□●●▴◯ mmol/L | HDL-C (DN rats, high-dose 27 mg/kg): 1.20 ± 0.27 mmol/L | LDL-C (DN rats, high-dose 27 mg/kg): 1.01 ± 0.20^□□●▴ mmol/L | TC (DN rats, high-dose 27 mg/kg): 1.42 ± 0.19^□□●●▴◯ mmol/L | TG (DN rats, high-dose 27 mg/kg): 0.30 ± 0.08^□□ mmol/L | UA (DN rats, high-dose 27 mg/kg): 26.44 ± 5.85^□□●● μmol/L | Kidney coefficient (DN rats, high-dose 27 mg/kg): 0.86 ± 0.05^□ % | lesions of the renal tissues (DN rats, kidney pathology (HE, Masson staining)): effectively reduce the lesions of the renal tissues | BUN (DN rats, low-dose 3 mg/kg): 10.56 ± 1.74 mmol/L | CREA (DN rats, low-dose 3 mg/kg): 54.16 ± 2.95 µmol/L | Glycated hemoglobin (DN rats, low-dose 3 mg/kg): 8.64 ± 0.45% | Urinary protein (DN rats, low-dose 3 mg/kg): 3.64 ± 0.65^□□ mg/6 h | mALB (microalbumin in urine) (DN rats, low-dose 3 mg/kg): 88.91 ± 10.33^□□ μg/6 h | ICAM-1 (DN rats, low-dose 3 mg/kg): 339.84 ± 92.15 pg/mgprog | IL-1β (DN rats, low-dose 3 mg/kg): 178.45 ± 31.59 pg/mgprog | IL-6 (DN rats, low-dose 3 mg/kg): 139.85 ± 55.41^□ pg/mgprog | MDA (DN rats, low-dose 3 mg/kg): 1.52 ± 0.38 nmol/mgprog | NF-κB (DN rats, low-dose 3 mg/kg): 1601.45 ± 206.73^□●● ^ pg/mgprog | SOD (DN rats, low-dose 3 mg/kg): 5.57 ± 1.75 U/mgprog | T-AOC (DN rats, low-dose 3 mg/kg): 1.39 ± 0.19 U/mgprog | TGF-β1 (DN rats, low-dose 3 mg/kg): 59.35 ± 7.34^□□ pg/mgprot | TNF-α (DN rats, low-dose 3 mg/kg): 485.60 ± 138.80 pg/mgprog | VCAM-1 (DN rats, low-dose 3 mg/kg): 37.85 ± 9.28 pg/mgprog | Glucose (GLU) (DN rats, low-dose 3 mg/kg): 13.11 ± 3.95^□□ mmol/L | HDL-C (DN rats, low-dose 3 mg/kg): 1.21 ± 0.28 mmol/L | LDL-C (DN rats, low-dose 3 mg/kg): 1.77 ± 0.57^□□ mmol/L | TC (DN rats, low-dose 3 mg/kg): 2.87 ± 0.69^□□ mmol/L | TG (DN rats, low-dose 3 mg/kg): 0.39 ± 0.05^□□ mmol/L | UA (DN rats, low-dose 3 mg/kg): 28.22 ± 7.14^□□●● μmol/L | Kidney coefficient (DN rats, low-dose 3 mg/kg): 1.06 ± 0.05% | BUN (DN rats, medium-dose 9 mg/kg): 10.07 ± 2.85 mmol/L | CREA (DN rats, medium-dose 9 mg/kg): 53.06 ± 3.75 µmol/L | Glycated hemoglobin (DN rats, medium-dose 9 mg/kg): 7.33 ± 0.77^□ % | Urinary protein (DN rats, medium-dose 9 mg/kg): 2.80 ± 1.02^□□●● mg/6 h | mALB (microalbumin in urine) (DN rats, medium-dose 9 mg/kg): 51.76 ± 9.44^□□●▴ μg/6 h | ICAM-1 (DN rats, medium-dose 9 mg/kg): 321.63 ± 82.35 pg/mgprog | IL-1β (DN rats, medium-dose 9 mg/kg): 155.22 ± 19.45 pg/mgprog | IL-6 (DN rats, medium-dose 9 mg/kg): 111.69 ± 35.86^□ pg/mgprog | MDA (DN rats, medium-dose 9 mg/kg): 1.48 ± 0.16 nmol/mgprog | NF-κB (DN rats, medium-dose 9 mg/kg): 786.93 ± 79.73^□□▴▴● pg/mgprog | SOD (DN rats, medium-dose 9 mg/kg): 5.12 ± 1.41 U/mgprog | T-AOC (DN rats, medium-dose 9 mg/kg): 1.37 ± 0.31 U/mgprog | TGF-β1 (DN rats, medium-dose 9 mg/kg): 27.91 ± 5.90^□□▴▴ pg/mgprot | TNF-α (DN rats, medium-dose 9 mg/kg): 321.27 ± 86.34^□ pg/mgprog | VCAM-1 (DN rats, medium-dose 9 mg/kg): 31.09 ± 5.42 pg/mgprog | Glucose (GLU) (DN rats, medium-dose 9 mg/kg): 11.86 ± 2.96^□□▴ mmol/L | HDL-C (DN rats, medium-dose 9 mg/kg): 1.23 ± 0.40 mmol/L | LDL-C (DN rats, medium-dose 9 mg/kg): 1.41 ± 0.33^□□ mmol/L | TC (DN rats, medium-dose 9 mg/kg): 2.33 ± 0.58^□□ mmol/L | TG (DN rats, medium-dose 9 mg/kg): 0.30 ± 0.07^□□ mmol/L | UA (DN rats, medium-dose 9 mg/kg): 27.18 ± 5.37^□□●● μmol/L | Kidney coefficient (DN rats, medium-dose 9 mg/kg): 1.00 ± 0.11% | effect on resisting the DN of rats (overall summary in words): stronger effect in resisting the DN of rats | activity in resisting the type II diabetic nephropathy, A8 compared with LM49 (rat, in vivo): higher activity in resisting the type II diabetic nephropathy than the compound LM49
